# Measured values as given in ChEMBL document CHEMBL4433204, “Design, synthesis and docking study of novel picolinamide derivatives as anticancer agents and VEGFR-2 inhibitors” (Eur J Med Chem, 2019).
# Active and inactive are the calls of the source. The calls are words filed in the database; no cut-off is given here.
# Tests used:
# A549 [1] = experiment: Anticancer activity against human A549 cells assessed as reduction in cell viability incubated for 48 hrs by MTT assay; conditions: A549, 48 h
# [2] = target: Vascular endothelial growth factor receptor 2 (Homo sapiens, UniProt P35968); experiment: Inhibition of human VEGFR2 in human A549 cells incubated for over night by ELISA method; format: cell-based
# Vascular endothelial growth factor receptor 2, sequence (P35968 whole entry): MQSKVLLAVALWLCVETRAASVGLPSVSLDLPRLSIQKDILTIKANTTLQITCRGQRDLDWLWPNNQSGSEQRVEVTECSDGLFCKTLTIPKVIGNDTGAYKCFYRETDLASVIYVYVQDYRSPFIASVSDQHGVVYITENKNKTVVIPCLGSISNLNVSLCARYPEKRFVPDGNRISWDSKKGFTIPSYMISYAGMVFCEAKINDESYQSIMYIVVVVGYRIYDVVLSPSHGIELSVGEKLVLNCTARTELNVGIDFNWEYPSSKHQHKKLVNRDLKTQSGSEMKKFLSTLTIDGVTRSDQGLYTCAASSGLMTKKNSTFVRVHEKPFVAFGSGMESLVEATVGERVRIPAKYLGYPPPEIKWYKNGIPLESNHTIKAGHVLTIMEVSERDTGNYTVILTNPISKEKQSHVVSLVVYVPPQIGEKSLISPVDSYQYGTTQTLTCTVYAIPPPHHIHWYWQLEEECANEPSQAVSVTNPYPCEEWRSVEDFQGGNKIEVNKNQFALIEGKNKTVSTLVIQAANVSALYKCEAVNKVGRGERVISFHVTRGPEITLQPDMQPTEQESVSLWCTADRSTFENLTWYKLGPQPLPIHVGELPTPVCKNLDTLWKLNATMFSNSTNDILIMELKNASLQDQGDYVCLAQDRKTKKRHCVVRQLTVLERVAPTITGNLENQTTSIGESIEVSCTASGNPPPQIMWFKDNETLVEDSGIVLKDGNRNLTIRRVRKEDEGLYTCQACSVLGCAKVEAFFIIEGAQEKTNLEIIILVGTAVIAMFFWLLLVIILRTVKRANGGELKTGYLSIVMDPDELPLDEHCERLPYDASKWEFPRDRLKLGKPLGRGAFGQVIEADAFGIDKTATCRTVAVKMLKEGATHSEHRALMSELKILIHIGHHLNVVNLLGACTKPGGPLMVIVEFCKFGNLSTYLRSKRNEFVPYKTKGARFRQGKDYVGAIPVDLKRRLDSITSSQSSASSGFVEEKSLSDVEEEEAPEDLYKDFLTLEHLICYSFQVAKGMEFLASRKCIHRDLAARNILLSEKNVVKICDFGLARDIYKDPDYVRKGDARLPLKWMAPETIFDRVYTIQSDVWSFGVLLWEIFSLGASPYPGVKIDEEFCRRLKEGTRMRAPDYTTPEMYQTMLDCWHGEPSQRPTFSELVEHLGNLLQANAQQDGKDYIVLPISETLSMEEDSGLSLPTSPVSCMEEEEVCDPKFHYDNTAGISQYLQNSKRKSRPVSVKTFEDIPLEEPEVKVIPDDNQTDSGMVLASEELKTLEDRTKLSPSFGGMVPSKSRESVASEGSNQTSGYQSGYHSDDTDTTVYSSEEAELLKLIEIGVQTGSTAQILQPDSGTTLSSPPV
# [3] = target: Receptor tyrosine-protein kinase erbB-2 (Homo sapiens, UniProt P04626); experiment: Inhibition of human HER2 in human A549 cells by ELISA method; format: cell-based
# Receptor tyrosine-protein kinase erbB-2, sequence (P04626 whole entry): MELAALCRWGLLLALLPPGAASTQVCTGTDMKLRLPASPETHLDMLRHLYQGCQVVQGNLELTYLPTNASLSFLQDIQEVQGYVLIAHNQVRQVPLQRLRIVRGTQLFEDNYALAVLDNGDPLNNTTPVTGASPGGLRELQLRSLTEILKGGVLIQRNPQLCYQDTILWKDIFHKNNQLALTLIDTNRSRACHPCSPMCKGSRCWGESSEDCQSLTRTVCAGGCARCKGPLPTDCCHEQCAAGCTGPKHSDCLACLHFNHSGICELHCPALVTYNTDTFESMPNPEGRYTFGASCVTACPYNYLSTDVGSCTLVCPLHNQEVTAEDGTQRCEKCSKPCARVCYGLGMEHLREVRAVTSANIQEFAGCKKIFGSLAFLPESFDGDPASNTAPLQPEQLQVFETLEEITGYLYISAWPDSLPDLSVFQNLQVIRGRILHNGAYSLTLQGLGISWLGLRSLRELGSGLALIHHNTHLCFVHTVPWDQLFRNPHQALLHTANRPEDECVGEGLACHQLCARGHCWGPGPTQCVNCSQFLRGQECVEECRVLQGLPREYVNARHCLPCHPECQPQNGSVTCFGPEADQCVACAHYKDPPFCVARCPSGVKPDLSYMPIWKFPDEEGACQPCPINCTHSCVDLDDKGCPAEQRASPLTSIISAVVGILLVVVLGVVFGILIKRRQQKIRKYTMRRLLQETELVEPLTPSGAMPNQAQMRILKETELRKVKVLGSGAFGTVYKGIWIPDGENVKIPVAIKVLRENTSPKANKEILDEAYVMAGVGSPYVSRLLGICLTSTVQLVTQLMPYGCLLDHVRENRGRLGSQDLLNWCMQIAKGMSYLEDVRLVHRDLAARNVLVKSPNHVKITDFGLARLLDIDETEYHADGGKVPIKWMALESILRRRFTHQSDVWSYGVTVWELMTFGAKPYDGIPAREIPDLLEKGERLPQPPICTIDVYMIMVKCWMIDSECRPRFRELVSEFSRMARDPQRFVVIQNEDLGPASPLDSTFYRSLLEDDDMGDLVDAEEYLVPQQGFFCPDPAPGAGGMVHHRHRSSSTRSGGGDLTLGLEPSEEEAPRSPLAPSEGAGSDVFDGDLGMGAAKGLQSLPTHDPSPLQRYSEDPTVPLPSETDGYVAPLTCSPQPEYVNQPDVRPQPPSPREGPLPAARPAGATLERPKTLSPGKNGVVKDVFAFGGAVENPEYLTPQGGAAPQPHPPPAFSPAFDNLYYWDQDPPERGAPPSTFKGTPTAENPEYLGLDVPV
# [4] = target: Hepatocyte growth factor receptor (Homo sapiens, UniProt P08581); experiment: Inhibition of human c-MET incubated for 2 hrs by ELISA method
# Hepatocyte growth factor receptor, sequence (P08581 whole entry): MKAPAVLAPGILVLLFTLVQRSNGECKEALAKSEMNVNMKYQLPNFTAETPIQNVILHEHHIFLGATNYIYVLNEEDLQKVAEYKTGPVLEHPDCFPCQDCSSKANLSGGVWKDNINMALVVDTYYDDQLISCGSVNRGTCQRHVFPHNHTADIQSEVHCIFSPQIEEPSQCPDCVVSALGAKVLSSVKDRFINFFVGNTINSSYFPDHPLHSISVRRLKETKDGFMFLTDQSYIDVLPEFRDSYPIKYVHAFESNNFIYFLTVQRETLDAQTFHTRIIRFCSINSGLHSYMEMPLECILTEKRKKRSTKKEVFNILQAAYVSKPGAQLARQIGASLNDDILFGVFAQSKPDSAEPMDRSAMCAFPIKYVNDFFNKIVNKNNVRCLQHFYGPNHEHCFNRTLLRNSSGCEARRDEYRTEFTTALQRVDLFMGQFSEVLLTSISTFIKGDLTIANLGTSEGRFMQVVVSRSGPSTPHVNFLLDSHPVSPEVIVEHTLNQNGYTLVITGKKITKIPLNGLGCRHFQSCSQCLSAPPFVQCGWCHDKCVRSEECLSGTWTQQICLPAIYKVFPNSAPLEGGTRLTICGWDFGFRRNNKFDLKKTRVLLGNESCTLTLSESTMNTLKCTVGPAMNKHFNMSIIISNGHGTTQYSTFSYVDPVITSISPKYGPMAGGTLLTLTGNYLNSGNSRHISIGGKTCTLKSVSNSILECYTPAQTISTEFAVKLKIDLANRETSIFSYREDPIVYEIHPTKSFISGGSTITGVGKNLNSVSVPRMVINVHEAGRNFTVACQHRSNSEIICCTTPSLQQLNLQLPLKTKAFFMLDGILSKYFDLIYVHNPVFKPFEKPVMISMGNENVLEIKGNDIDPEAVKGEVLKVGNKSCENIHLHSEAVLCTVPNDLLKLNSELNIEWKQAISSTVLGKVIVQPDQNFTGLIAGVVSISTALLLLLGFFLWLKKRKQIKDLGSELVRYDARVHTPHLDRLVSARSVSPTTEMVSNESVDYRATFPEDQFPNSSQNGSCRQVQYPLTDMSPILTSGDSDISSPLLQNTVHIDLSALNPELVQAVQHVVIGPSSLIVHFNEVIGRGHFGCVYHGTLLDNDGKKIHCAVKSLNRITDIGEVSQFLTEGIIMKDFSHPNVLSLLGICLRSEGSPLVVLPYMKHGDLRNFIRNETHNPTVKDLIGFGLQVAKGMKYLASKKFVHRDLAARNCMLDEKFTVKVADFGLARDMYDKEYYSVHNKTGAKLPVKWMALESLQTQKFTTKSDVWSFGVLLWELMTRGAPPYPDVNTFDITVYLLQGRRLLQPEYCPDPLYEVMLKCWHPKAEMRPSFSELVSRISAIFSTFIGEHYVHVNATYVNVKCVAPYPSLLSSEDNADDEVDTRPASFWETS
# [5] = target: Epidermal growth factor receptor (Homo sapiens, UniProt P00533); experiment: biochemical; format: cell-based, Sf9
# [6] = target: T1, Tyrosine-protein kinase Mer (Homo sapiens, UniProt Q12866); experiment: Inhibition of human MER incubated for 90 mins by ELISA method
# T1 sequence (Q12866 whole entry): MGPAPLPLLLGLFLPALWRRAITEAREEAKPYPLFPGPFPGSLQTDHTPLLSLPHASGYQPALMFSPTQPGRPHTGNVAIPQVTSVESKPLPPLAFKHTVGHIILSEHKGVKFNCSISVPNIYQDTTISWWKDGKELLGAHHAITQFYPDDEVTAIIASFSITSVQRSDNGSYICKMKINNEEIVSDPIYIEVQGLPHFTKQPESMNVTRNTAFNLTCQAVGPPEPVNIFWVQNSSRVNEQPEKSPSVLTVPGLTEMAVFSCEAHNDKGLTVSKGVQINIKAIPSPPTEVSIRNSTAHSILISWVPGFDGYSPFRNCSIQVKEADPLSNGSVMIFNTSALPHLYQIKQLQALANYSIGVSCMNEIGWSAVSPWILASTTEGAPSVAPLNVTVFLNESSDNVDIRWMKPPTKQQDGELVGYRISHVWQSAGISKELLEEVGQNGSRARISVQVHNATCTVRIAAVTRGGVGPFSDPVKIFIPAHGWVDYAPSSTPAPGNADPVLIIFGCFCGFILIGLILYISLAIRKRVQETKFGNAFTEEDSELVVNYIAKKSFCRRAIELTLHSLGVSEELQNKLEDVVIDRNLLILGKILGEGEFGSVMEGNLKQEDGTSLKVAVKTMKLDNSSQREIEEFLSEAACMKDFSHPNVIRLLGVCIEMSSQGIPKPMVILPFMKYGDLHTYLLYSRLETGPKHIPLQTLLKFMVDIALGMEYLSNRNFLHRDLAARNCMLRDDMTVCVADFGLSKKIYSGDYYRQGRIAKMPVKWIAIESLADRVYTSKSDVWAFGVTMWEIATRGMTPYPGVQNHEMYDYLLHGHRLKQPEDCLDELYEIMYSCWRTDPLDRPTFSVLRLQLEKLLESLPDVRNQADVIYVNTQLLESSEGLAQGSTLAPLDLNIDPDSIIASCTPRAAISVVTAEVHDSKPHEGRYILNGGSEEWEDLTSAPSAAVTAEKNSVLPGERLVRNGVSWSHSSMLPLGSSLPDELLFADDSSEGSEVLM
# PANC-1 [7] = experiment: Anticancer activity against human PANC1 assessed as reduction in cell viability at 100 uM incubated for 48 hrs by MTT assay relative to control; format: functional
# OVCAR-3 [8] = experiment: Anticancer activity against human OVCAR3 assessed as reduction in cell viability at 100 uM incubated for 48 hrs by MTT assay relative to control; format: functional
# HT-29 [9] = experiment: Anticancer activity against human HT-29 assessed as reduction in cell viability at 100 uM incubated for 48 hrs by MTT assay relative to control; format: functional
# 786-0 = experiment: Anticancer activity against human 786-O assessed as reduction in cell viability at 100 uM incubated for 48 hrs by MTT assay relative to control; format: functional
# A549 [10] = experiment: Induction of apoptosis in human A549 cells assessed as measuring caspase-3 levels after 2 hrs by sandwich ELISA method (reference value: 57.22 pg/ml); format: functional
# A549 [11] = experiment: Induction of apoptosis in human A549 cells assessed as reduction in MCL-1 protein level after 2 hrs by sandwich ELISA method; format: functional, cell-based; conditions: A549, 2 h
# PANC-1 [12] = experiment: Anticancer activity against human PANC1 assessed as reduction in cell viability incubated for 48 hrs by MTT assay; conditions: PANC-1, 48 h
# OVCAR-3 [13] = experiment: Anticancer activity against human OVCAR3 assessed as reduction in cell viability incubated for 48 hrs by MTT assay; conditions: OVCAR-3, 48 h
# HT-29 [14] = experiment: Anticancer activity against human HT-29 assessed as reduction in cell viability incubated for 48 hrs by MTT assay; conditions: HT-29, 48 h
# A549 [15] = experiment: Cell cycle arrest in human A549 cells assessed as accumulation at G0/G1 phase at 2 uM after 24 hrs by propidium iodide staining-based flow cytometric method (reference value: 65.63%); format: functional
# A549 [16] = experiment: Cell cycle arrest in human A549 cells assessed as accumulation at S phase at 2 uM after 24 hrs by propidium iodide staining-based flow cytometric method (reference value: 26.79%); format: functional
# A549 [17] = experiment: Cell cycle arrest in human A549 cells assessed as accumulation at G2/M phase at 2 uM after 24 hrs by propidium iodide staining-based flow cytometric method (reference value: 7.22%); format: functional
# A549 [18] = experiment: Cell cycle arrest in human A549 cells assessed as accumulation at pre-G1 phase at 2 uM after […] by propidium iodide staining-based flow cytometric method (reference value: 0.36%); format: functional
# A549 [19] = experiment: Induction of apoptosis in human A549 cells assessed as viable cells at 2 uM after 24 hrs by Annexin V-FITC/propidium iodide double staining based flow cytometry (reference value: 97.87%); format: functional; conditions: A549, 24 h, read-out: Activity
# A549 [20] = experiment: Induction of apoptosis in human A549 cells assessed as early apoptotic cells at 2 uM after 24 hrs by Annexin V-FITC/propidium iodide double staining based flow cytometry (reference value: […]); format: functional
# A549 [21] = experiment: Induction of apoptosis in human A549 cells assessed as late apoptotic cells at 2 uM after 24 hrs by Annexin V-FITC/propidium iodide double staining based flow cytometry (reference value: 0.11%); format: functional
# A549 [22] = experiment: Induction of apoptosis in human A549 cells assessed as necrotic cells at 2 uM after 24 hrs by Annexin V-FITC/propidium iodide double staining based flow cytometry (reference value: 0.1%); format: functional
# A549 [23] = experiment: Induction of apoptosis in human A549 cells assessed as total apoptotic cells at 2 uM after 24 hrs by Annexin V-FITC/propidium iodide double staining based flow cytometry relative to control; format: functional
# A549 [24] = experiment: Induction of apoptosis in human A549 cells assessed as measuring caspase-3 levels after 2 hrs by sandwich ELISA method relative to control; format: functional
smiles,measurement,setting,value
O=C(CSC(=S)N1CCN(c2ccccc2)CC1)Nc1cccc(NC(=O)c2ccccn2)c1,IC50,A549 [1],530 nM
O=C(CCSC(=S)N1CCOCC1)Nc1cccc(NC(=O)c2ccccn2)c1,IC50,A549 [1],2420 nM
CC(C)(C)OC(=O)N1CCN(C(=S)SCC(=O)Nc2cccc(NC(=O)c3ccccn3)c2)CC1,IC50,A549 [1],180 nM
O=C(Nc1cccc(NC(=S)Nc2ccc([N+](=O)[O-])cc2)c1)c1ccccn1,IC50,A549 [1],450 nM
CCN1CCN(C(=S)SCC(=O)Nc2cccc(NC(=O)c3ccccn3)c2)CC1,IC50,A549 [1],3720 nM
O=C(Nc1cccc(NC(=O)c2ccccn2)c1)Nc1ccc2ccccc2c1,IC50,A549 [1],240 nM
O=C(CSC(=S)N1CCN(c2ncccn2)CC1)Nc1cccc(NC(=O)c2ccccn2)c1,IC50,A549 [1],40 nM
Cc1ccc(NC(=O)Nc2cccc(NC(=O)c3ccccn3)c2)cc1,IC50,A549 [1],20 nM
O=C(Nc1cccc(NC(=O)c2ccccn2)c1)NC1CCCCC1,IC50,A549 [1],6260 nM
same,IC50,[2],87 nM
same,IC50,[3],64 nM
same,IC50,[4],6220 nM
same,IC50,[5],147 nM
same,IC50,[6],2630 nM
same,Activity,PANC-1 [7],<=50%
same,Activity,OVCAR-3 [8],<=50%
same,Activity,HT-29 [9],<=50%
same,Activity,786-0,<=50%
O=C(Nc1ccccc1)Nc1cccc(NC(=O)c2ccccn2)c1,IC50,A549 [1],5190 nM
O=C(CCSC(=S)N1CCN(c2ccccc2)CC1)Nc1cccc(NC(=O)c2ccccn2)c1,IC50,A549 [1],31700 nM
same,IC50,[2],94 nM
same,IC50,[3],54 nM
same,IC50,[4],17900 nM
same,IC50,[5],70 nM
same,IC50,[6],3120 nM
same,Activity,PANC-1 [7],Active
same,Activity,HT-29 [9],Active
O=C(Nc1ccc([N+](=O)[O-])cc1)Nc1cccc(NC(=O)c2ccccn2)c1,IC50,A549 [1],320 nM
C=CCN1CCN(C(=S)SCC(=O)Nc2cccc(NC(=O)c3ccccn3)c2)CC1,IC50,A549 [1],210 nM
CN1CCN(C(=S)SCC(=O)Nc2cccc(NC(=O)c3ccccn3)c2)CC1,IC50,A549 [1],1340 nM
O=C(Nc1cccc(Cl)c1)Nc1cccc(NC(=O)c2ccccn2)c1,IC50,A549 [1],2850 nM
O=C(CSC(=S)N1CCN(C2CCCCC2)CC1)Nc1cccc(NC(=O)c2ccccn2)c1,IC50,A549 [1],390 nM
O=C(CCSC(=S)N1CCN(c2ncccn2)CC1)Nc1cccc(NC(=O)c2ccccn2)c1,IC50,A549 [1],460 nM
O=C(CCSC(=S)N1CCCCC1)Nc1cccc(NC(=O)c2ccccn2)c1,IC50,A549 [1],4120 nM
CNC(=O)c1cc(Oc2ccc(NC(=O)Nc3ccc(Cl)c(C(F)(F)F)c3)cc2)ccn1 [SORAFENIB],IC50,A549 [1],750 nM
same,Activity,A549 [10],515 pg/mL
same,IC50,A549 [11],5530 nM
same,IC50,PANC-1 [12],20000 nM
same,IC50,OVCAR-3 [13],12000 nM
same,IC50,HT-29 [14],10000 nM
same,Activity,A549 [15],45.13%
same,Activity,A549 [16],15.51%
same,Activity,A549 [17],23.14%
same,Activity,A549 [18],16.22%
same,viability at 2 µM,A549 [19],82%
same,Activity,A549 [20],6.18%
same,Activity,A549 [21],8.62%
same,Activity,A549 [22],1.42%
O=C(Nc1ccc(Cl)cc1)Nc1cccc(NC(=O)c2ccccn2)c1,IC50,A549 [1],3620 nM
O=C(Nc1cccc(NC(=S)Nc2ccccc2)c1)c1ccccn1,IC50,A549 [1],4400 nM
O=C(NCc1ccccc1)Nc1cccc(NC(=O)c2ccccn2)c1,IC50,A549 [1],2990 nM
O=C(CSC(=S)N1CCCCC1)Nc1cccc(NC(=O)c2ccccn2)c1,fold change (FC),A549 [23],49
same,IC50,A549 [1],320 nM
same,IC50,[2],27 nM
same,IC50,[3],104 nM
same,IC50,[4],8300 nM
same,IC50,[5],84 nM
same,IC50,[6],3950 nM
same,Activity,A549 [10],505.4 pg/mL
same,fold change (FC),A549 [24],8.833
same,IC50,A549 [11],6700 nM
same,Activity,PANC-1 [7],Active
same,Activity,HT-29 [9],Active
same,Activity,A549 [15],52.92%
same,Activity,A549 [16],16.66%
same,Activity,A549 [17],17.36%
same,Activity,A549 [18],13.06%
same,viability at 2 µM,A549 [19],85.2%
same,Activity,A549 [20],5.01%
same,Activity,A549 [21],7.72%
same,Activity,A549 [22],1.33%
O=C(CSC(=S)N1CCOCC1)Nc1cccc(NC(=O)c2ccccn2)c1,IC50,A549 [1],50 nM
